Results reported in patent US20230085307A1, “PYRIDAZINONE COMPOUND AND HERBICIDE” (NISSAN CHEMICAL CORPORATION, priority 2019, published 2023).

Key:
Chinese sprangletop = experiment: Test Example 3: herbicidal effect by foliage application, Wagner pot (Table 18, symbol D); assay type: in vivo, chinese sprangletop (Leptochloa chinensis); details: for herbicidal effect on D (Chinese sprangletop), rating 0-5: 320 g/ha
Method in brief: (§1)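 Plants were sown in alluvial soil held under 0.1–0.5 cm standing water and grown 14 days in a greenhouse at 25–30 °C. An emulsifiable formulation, water-diluted to the set dose, was then sprayed onto the foliage, and effects were scored three weeks later using previously defined criteria.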

windgrass = experiment: Test Example 4: herbicidal effect by soil treatment (Table 19, symbol L); assay type: in vivo, windgrass (Apera spica-venti); details: for L: windgrass, herbicidal effect rating: AAH 320 g/ha
Method in brief: (§2)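 Herbicidal effect was rated 3 weeks after treatment, using the scoring criteria of an earlier test. The compound, formulated as an emulsion and diluted in water to a set herbicide amount, had been sprayed uniformly on soil over freshly sown seeds. Growth took place in a greenhouse at 25° C. to 30° C.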

Italian ryegrass [1] = experiment: Test Example 5: herbicidal effect by foliage application, plastic box (Table 20, symbol K); assay type: in vivo, Italian ryegrass (Lolium multiflorum); details: foliage application; for effect on Italian ryegrass (K): 320 g/ha, 3 weeks after application
Method in brief: (§3)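 Foliar spray test: emulsion formulation diluted in water to a set application rate, sprayed onto 14-day-old plants raised in diluvial soil at 25° C to 30° C under glass. Both herbicidal effect and crop effect rated visually three weeks later.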

late watergrass [2] = experiment: Test Example 1: herbicidal activity, application before weed generation under submerged conditions (Table 16, symbol A); assay type: in vivo, late watergrass (Echinochloa oryzicola); details: 320 g/ha applied herbicide
Method in brief: (§4)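 Submerged Wagner pots (alluvial soil, 4 cm water) sown with weed seeds and planted with 2.5-leaf rice seedlings; emulsifiable concentrate diluted in water applied to water surface on sowing day. Held in greenhouse at 25-30 °C; injury scored 0-5 by herbicidal rate after three weeks.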

blackgrass = experiment: Test Example 5: herbicidal effect by foliage application, plastic box (Table 20, symbol J); assay type: in vivo, blackgrass (Alopecurus myosuroides); details: foliage application; for effect on blackgrass (J): 320 g/ha, 3 weeks after application
Method in brief: as §3

rice flat sedge = experiment: Test Example 3: herbicidal effect by foliage application, Wagner pot (Table 18, symbol E); assay type: in vivo, rice flat sedge (Cyperus iria); details: for herbicidal effect on E (rice flat sedge), rating 0-5: 320 g/ha
Method in brief: as §1

Italian ryegrass [3] = experiment: Test Example 4: herbicidal effect by soil treatment (Table 19, symbol K); assay type: in vivo, Italian ryegrass (Lolium multiflorum); details: for K: Italian ryegrass, herbicidal effect rating: AAH 320 g/ha
Method in brief: as §2

Japanese bulrush = experiment: Test Example 1: herbicidal activity, application before weed generation under submerged conditions (Table 16, symbol B); assay type: in vivo, Japanese bulrush (Schoenoplectus juncoides); details: 320 g/ha applied herbicide
Method in brief: as §4

green foxtail = experiment: Test Example 5: herbicidal effect by foliage application, plastic box (Table 20, symbol G); assay type: in vivo, green foxtail (Setaria viridis); details: foliage application; for effect on green foxtail (G): 320 g/ha, 3 weeks after application
Method in brief: as §3

oval-leafed pondweed = experiment: Test Example 2: herbicidal activity, application during weed generation under submerged conditions (Table 17, symbol C); assay type: in vivo, oval-leafed pondweed (Monochoria vaginalis); details: AAH 320 g/ha; application during weed generation, submerged conditions
Method in brief: (§5)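 Steps: fill Wagner pots with alluvial soil; add water to give 4 cm depth; sow the species mixed; grow under glass at 25–30° C.; at 1–2 leaves apply water-diluted emulsion formulation to the water surface at a fixed herbicide amount; score after 3 weeks.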

late watergrass [4] = experiment: Test Example 2: herbicidal activity, application during weed generation under submerged conditions (Table 17, symbol A); assay type: in vivo, late watergrass (Echinochloa oryzicola); details: AAH 320 g/ha; application during weed generation, submerged conditions
Method in brief: as §5

wild oat = experiment: Test Example 5: herbicidal effect by foliage application, plastic box (Table 20, symbol I); assay type: in vivo, wild oat (Avena fatua); details: foliage application; for effect on wild oat (I): 320 g/ha, 3 weeks after application
Method in brief: as §3

redroot pigweed [5] = experiment: Test Example 4: herbicidal effect by soil treatment (Table 19, symbol N); assay type: in vivo, redroot pigweed (Amaranthus retroflexus); details: for N: redroot pigweed, herbicidal effect rating: AAH 320 g/ha
Method in brief: as §2

barnyard grass [6] = experiment: Test Example 3: herbicidal effect by foliage application, Wagner pot (Table 18, symbol H); assay type: in vivo, barnyard grass (Echinochloa crus-galli); details: for herbicidal effect on H (barnyard grass), rating 0-5: 320 g/ha
Method in brief: as §1

barnyard grass [7] = experiment: Test Example 5: herbicidal effect by foliage application, plastic box (Table 20, symbol H); assay type: in vivo, barnyard grass (Echinochloa crus-galli); details: foliage application; for effect on barnyard grass (H): 320 g/ha, 3 weeks after application
Method in brief: as §3

redroot pigweed [8] = experiment: Test Example 5: herbicidal effect by foliage application, plastic box (Table 20, symbol N); assay type: in vivo, redroot pigweed (Amaranthus retroflexus); details: foliage application, AAH 320 g/ha, evaluated three weeks after application
Method in brief: as §3

[9] = amount of applied herbicide 320 g/ha
[10] = AAH 320 g/ha, evaluated three weeks after application

| Compound | herbicidal effect on D (Chinese sprangletop), rating 0-5 (Chinese sprangletop) | L: windgrass, herbicidal effect rating (windgrass) | effect on Italian ryegrass (K) (Italian ryegrass [1]) | Herbicidal effect on A: late watergrass (grade 0-5) (late watergrass [2]) | effect on blackgrass (J) (blackgrass) | herbicidal effect on E (rice flat sedge), rating 0-5 (rice flat sedge) | K: Italian ryegrass, herbicidal effect rating (Italian ryegrass [3]) | Herbicidal effect on B: Japanese bulrush (grade 0-5) (Japanese bulrush) | effect on green foxtail (G) (green foxtail) | herbicidal effect rating, C: oval-leafed pondweed (oval-leafed pondweed) | herbicidal effect rating, A: late watergrass (late watergrass [4]) | effect on wild oat (I) (wild oat) | N: redroot pigweed, herbicidal effect rating (redroot pigweed [5]) | herbicidal effect on H (barnyard grass), rating 0-5 (barnyard grass [6]) | effect on barnyard grass (H) (barnyard grass [7]) | further results |
| --- | --- | --- | --- | --- | --- | --- | --- | --- | --- | --- | --- | --- | --- | --- | --- | --- |
| Cc1nn(C)c(=O)c(-c2c(-c3ccc(OCC(F)F)cc3)sc3ccccc23)c1O [1-203] | 4 (Herbicidal rate of 70% or more and less than 90%) | 0 (Herbicidal rate of 5% or less (almost no effect)) | 5 (Herbicidal rate of 90% or more (almost completely withered)) | 5 (Herbicidal rate of 90% or more (almost completely withered)) | 2 (Herbicidal rate of 20% or more and less than 40%) | 5 (Herbicidal rate of 90% or more (almost completely withered)) | 5 (Herbicidal rate of 90% or more (almost completely withered)) | 5 (Herbicidal rate of 90% or more (almost completely withered)) | 5 (Herbicidal rate of 90% or more (almost completely withered)) | 4 (Herbicidal rate of 70% or more and less than 90%) | 4 (Herbicidal rate of 70% or more and less than 90%) | 0 (Herbicidal rate of 5% or less (almost no effect)) | 5 (Herbicidal rate of 90% or more (almost completely withered)) | 5 (Herbicidal rate of 90% or more (almost completely withered)) | 5 (Herbicidal rate of 90% or more (almost completely withered)) | – |
| COCCOCOc1c(C)nn(C)c(=O)c1-c1c(-c2ccc(OCCSC)cc2)sc2ccccc12 [1-221] | 5 (Herbicidal rate of 90% or more (almost completely withered)) | 0 (Herbicidal rate of 5% or less (almost no effect)) | 5 (Herbicidal rate of 90% or more (almost completely withered)) | 5 (Herbicidal rate of 90% or more (almost completely withered)) | 5 (Herbicidal rate of 90% or more (almost completely withered)) | 5 (Herbicidal rate of 90% or more (almost completely withered)) | 5 (Herbicidal rate of 90% or more (almost completely withered)) | 3 (Herbicidal rate of 40% or more and less than 70%) | 5 (Herbicidal rate of 90% or more (almost completely withered)) | 3 (Herbicidal rate of 40% or more and less than 70%) | 5 (Herbicidal rate of 90% or more (almost completely withered)) | 5 (Herbicidal rate of 90% or more (almost completely withered)) | 5 (Herbicidal rate of 90% or more (almost completely withered)) | 5 (Herbicidal rate of 90% or more (almost completely withered)) | 5 (Herbicidal rate of 90% or more (almost completely withered)) | – |
| C#CCSCc1ccc(-c2sc3ccccc3c2-c2c(O)c(C)nn(C)c2=O)cc1 [1-247] | 1 (Herbicidal rate of 5% or more and less than 20%) | 0 (Herbicidal rate of 5% or less (almost no effect)) | 4 (Herbicidal rate of 70% or more and less than 90%) | 2 (Herbicidal rate of 20% or more and less than 40%) | 0 (Herbicidal rate of 5% or less (almost no effect)) | 4 (Herbicidal rate of 70% or more and less than 90%) | 3 (Herbicidal rate of 40% or more and less than 70%) | 2 (Herbicidal rate of 20% or more and less than 40%) | 4 (Herbicidal rate of 70% or more and less than 90%) | 0 (Herbicidal rate of 5% or less (almost no effect)) | 3 (Herbicidal rate of 40% or more and less than 70%) | 1 (Herbicidal rate of 5% or more and less than 20%) | 3 (Herbicidal rate of 40% or more and less than 70%) | 5 (Herbicidal rate of 90% or more (almost completely withered)) | 4 (Herbicidal rate of 70% or more and less than 90%) | – |
| Cc1nn(C)c(=O)c(-c2c(-c3ccccc3OC(F)(F)F)sc3ccc(F)cc23)c1O [2-043] | 3 (Herbicidal rate of 40% or more and less than 70%) | – | 0 (Herbicidal rate of 5% or less (almost no effect)) | 0 (Herbicidal rate of 5% or less (almost no effect)) | – | 5 (Herbicidal rate of 90% or more (almost completely withered)) | – | 2 (Herbicidal rate of 20% or more and less than 40%) | 5 (Herbicidal rate of 90% or more (almost completely withered)) | 0 (Herbicidal rate of 5% or less (almost no effect)) | 0 (Herbicidal rate of 5% or less (almost no effect)) | 2 (Herbicidal rate of 20% or more and less than 40%) | – | 5 (Herbicidal rate of 90% or more (almost completely withered)) | 4 (Herbicidal rate of 70% or more and less than 90%) | herbicidal effect rating, L: windgrass (windgrass; 320 g/ha): 0 (Herbicidal rate of 5% or less (almost no effect)); herbicidal effect rating, K: Italian ryegrass (Italian ryegrass [3]; 320 g/ha): 0 (Herbicidal rate of 5% or less (almost no effect)); herbicidal effect rating, N: redroot pigweed (redroot pigweed [5]; 320 g/ha): 5 (Herbicidal rate of 90% or more (almost completely withered)) |
| COCCOC(=O)Oc1c(C)nn(C)c(=O)c1-c1c(-c2ccc(OC(F)F)cc2)sc2ccc(F)cc12 [2-295] | – | – | – | 4 (Herbicidal rate of 70% or more and less than 90%) | – | – | – | 3 (Herbicidal rate of 40% or more and less than 70%) | – | 3 (Herbicidal rate of 40% or more and less than 70%) | 5 (Herbicidal rate of 90% or more (almost completely withered)) | – | – | – | – | herbicidal effect on D: Chinese sprangletop (Chinese sprangletop; [9]): 4 (Herbicidal rate of 70% or more and less than 90%); K: Italian ryegrass, herbicidal effect (criteria 0-5) (Italian ryegrass [1]; [10]): 5 (Herbicidal rate of 90% or more (almost completely withered)); J: blackgrass, herbicidal effect (criteria 0-5) (blackgrass; [10]): 4 (Herbicidal rate of 70% or more and less than 90%); herbicidal effect on E: rice flat sedge (rice flat sedge; [9]): 5 (Herbicidal rate of 90% or more (almost completely withered)); herbicidal effect on K: Italian ryegrass (Italian ryegrass [3]; [9]): 5 (Herbicidal rate of 90% or more (almost completely withered)); N: redroot pigweed, herbicidal effect (criteria 0-5) (redroot pigweed [8]): 5 (Herbicidal rate of 90% or more (almost completely withered)); G: green foxtail, herbicidal effect (criteria 0-5) (green foxtail; [10]): 5 (Herbicidal rate of 90% or more (almost completely withered)); I: wild oat, herbicidal effect (criteria 0-5) (wild oat; [10]): 3 (Herbicidal rate of 40% or more and less than 70%); herbicidal effect on N: redroot pigweed (redroot pigweed [5]; [9]): 5 (Herbicidal rate of 90% or more (almost completely withered)); herbicidal effect on H: barnyard grass (barnyard grass [6]; [9]): 5 (Herbicidal rate of 90% or more (almost completely withered)); H: barnyard grass, herbicidal effect (criteria 0-5) (barnyard grass [7]; [10]): 5 (Herbicidal rate of 90% or more (almost completely withered)) |
